BindingDB's records for doi:10.1046/j.1471-4159.1998.70052147.x (F. Hoffmann-La Roche, 1998)
Where a name gives a salt, the structure may show the parent alone.

Molecular target: Glutamate receptor ionotropic, NMDA 1 (Rattus norvegicus, UniProt P35439)

| Ki | SMILES |
| --- | --- |
| 6 nM | C[C@@H](CN1CCC(Cc2ccccc2)CC1)[C@@H](O)c1ccc(O)cc1 |
| > 10000 nM | NCCCCNCCCN [spermidine] |
| 300 nM | OC(CN1CCC(Cc2ccc(F)cc2)CC1)c1ccc(Cl)cc1 (stereo unspecified) |
| 8 nM | C[C@@H]([C@@H](O)c1ccc(O)cc1)N1CCC(O)(c2ccccc2)CC1 [1-[(1S,2S)-2-Hydroxy-2-(4-hydroxy-phenyl)-1-methyl-ethyl]-4-phenyl-piperidin-4-ol] |
| 2000 nM | NCCCNCCCCNCCCN [N,N''-bis(3-azanylpropyl)butane-1,4-diamine;hydrochloride] |

| SMILES | Ki |
| --- | --- |
| COc1cc2c(cc1O)C(CCc1ccc(Cl)cc1)N(C)CC2 (stereo unspecified) [Ro 04-5595] | 20 nM |
